Measured values as given in patent US10537603B2, “Pharmaceutical composition for preventing or treating angioedema, containing extract of peony root or mixture of peony root and licorice as active ingredient” (Korea Institute of Oriental Medicine, priority 2014, dated 2020).

Key:
[1] = test system: advanced glycation end product (AGE) generation; experiment: Inhibition of advanced glycation end product (AGE) generation, BSA with fructose/glucose, fluorescence; format: biochemical; details: BSA 10 mg/ml, 0.2 M fructose + 0.2 M glucose, 37° C., 7 days
Description: To determine the inhibitory effect of advanced glycation end product generation of the peony root extract, or the mixed extract of peony root and licorice, the present inventors used 10 mg/ml of bovine serum albumin (Sigma, St. Louis, Mo., USA) dissolved in 50 mM phosphate buffer (pH 7.4) as a protein source and a mixed liquid of 0.2 M fructose and 0.2 M glucose as a sugar source, respectively.
The extracts of <Example 1> and a positive control group (aminoguanidine) were dissolved in 30 μl of 0.2% DMSO, and then again dissolved in 15% tween 80. The protein source, the sugar source and the extracts of the present invention as prepared above were mixed and compounded to a total of 1 ml, and then each cultured at 37° C. for 7 days to allow for glycation. At this time 0.02% azide (sodium azide) was added thereto to prevent from generating bacteria during the culture period. After the culture fluorescence (spectrofluorometric detector; Bio-TEK, Synergy HT, USA; Ex: 350 nm; Em: 450 nm) was measured and then calculated with Equation 1 below, with showing the result in Table 2.

[2] = test system: human retinal pigment epithelial cell lines (ARPE-19); details: ARPE-19, Molecular Vision 2011; 17: 3512-3522; cited from earlier work
[3] = test system: MNU-induced animal models; experiment: Comparison of CJG30R and paeoniflorin in MNU-induced age-related macular degeneration model (ONL thickness); format: in vivo, C57BL/6 mice; details: CJG30R 100 mg/kg, PF 6.5 mg/kg oral
Description: The 6-week-old male C57BL/6 mice were used after acclimatization for 1 week. To induce damage and degeneration of photoreceptor cells among morphological changes of retinal tissues appearing in macular degeneration, 1% (0.05% acetic acid) N-methyl-N-nitrosourea (MNU, Sigma, USA) was intraperitoneally injected to the 7-week-old male C57BL/6 mice (60 mg/kg). The same amount of 0.05% acetic acid was intraperitoneally administered to the normal group. CJG30R (100 mg/kg) and PF-6.6 (6.5 mg/kg) as test drugs were suspended and compounded in 0.5% sodium carboxymethyl cellulose (CMC), orally administrated one day before MNU administration, and orally administrated once per day for 7 days after MNU administration. The same amount of 0.5% CMC was orally administrated to the normal group and the MNU-induced group. After completing administration of the test drugs, eyes were enucleated by carrying out an autopsy on the mice, and then mounted on 10% neutralized formalin for one day and embedded in paraffin to prepare slide sections. Slide sections were stained with Hematoxylin & Eosin (H & E) and observed under an optical microscope. The damage and degeneration of the photoreceptor cells were measured and evaluated by thickness changes in the outer nuclear layer of the retinal tissues.

SMILES | IC50, inhibitory effect of advanced glycation end product generation [1] [mg/L] | Effect on cell death due to H2O2 and oxidative stress [2] | Effect on outer nuclear layer damage as compared to the MNU administration group [3] | ONL thickness (AU) ([3]; MNU 60 mg/kg i.p., NOR 1.99 ± 0.21, MNU 0.92 ± 0.17) | ONL thickness (%) ([3]; NOR = 100, MNU = 0)
N=C(N)NN [Aminoguanidine, aminoguanidine] | 81.38 ± 2.70 | – | – | – | –
C[C@@]12C[C@@]3(O)O[C@@H](O1)[C@]1(COC(=O)c4ccccc4)[C@H]3C[C@@]12O[C@@H]1O[C@H](CO)[C@@H](O)[C@H](O)[C@H]1O [PF-6.5, paeoniflorin] | – | inhibitory effects | no effect at all | 0.96 ± 0.17 | 3.52 ± 16.11
